Experiment [1] concerns Candida albicans biofilms. Put plainly: Inhibition of C. albicans biofilm formation, crystal violet reporter assay. The format is cell-based. To be noted: 24 h, read-out: inhibition of C. albicans biofilm formation. The method, then: It was screened at 100 μM for its ability to inhibit to the formation of C. albicans biofilms using a crystal violet reporter assay. Briefly, biofilms were allowed to form for 24 hours in a 96-well microtiter plate in the absence or presence of 100 μM of the compound. The wells were subsequently washed thoroughly with water to remove free-floating and loosely adherent fungus, and then treated with crystal violet. Crystal violet stains the remaining surface attached fungus (i.e. the biofilm), which following solublization, can be quantified by spectrophotometry (A540).
Each member of the pilot library was assayed at 100 μM for its ability to inhibit the formation of C. albicans biofilms using the crystal violet reporter assay.
Procedure to Determine the Inhibitory Effect of Test Compounds on C. albicans, C. neoformans and a Mixed S. epidermidis/C. albicans Biofilm Formation:
Inhibition assays were performed by taking an overnight culture of yeast or yeast/bacteria strain and subculturing it at an OD600 of 0.05 into YPD (Yeast extract, peptone and dextrose (BD 242820)) media for the yeast alone or tryptic soy broth for the S. epidermidis/C. albicans. […] Biofilm inhibition was quantitated by measuring the OD540 of each well in which a negative control lane wherein no biofilm was formed served as a background and was subtracted out.

In experiment [2] the test system is Xanthomonas strains Xcv 135. Put plainly: Crystal violet biofilm inhibition (attachment) assay on PVC microtiter wells. Format: cell-based. Conditions: 28° C., 6 hours, static. The method, then: A Standard Crystal Violet reporter assay is employed to assess the effect of compounds from the 2-amino on the formation of biofilms. Among others, the following strains are tested:
Bacteria are allowed to form biofilms in a multi-well plate in the absence or presence of one or more compounds. Planktonic (or free growing) bacteria are then removed, wells washed vigorously, and crystal violet added. Crystal violet stains the remaining bacteria which, following ethanol solubilization, is quantitated by spectrophotometry (A540). Time-dependent and concentration-dependent analysis of each compound are performed.
Biofilm formation on PVC microtiter wells was accomplished using Xanthomonas strains Xcv 135 (known to infect peppers and tomatoes) and Xcv 5 (known to infect tomatoes but not peppers) as models. The Starting Optical Density (OD at 600 nm) for biofilm attachment assay was 0.55, the temperature for this assay was 28° C., the duration of incubation was 6 hours under, and the assay was static.
Biofilm inhibition results are as follows for screens with Xcv 135. The Xcv 5 strain is tested in the same manner.

In experiment [3] the test system is bacterial spot (caused by the bacterium Xanthomonas euvesicatoria) of pepper, copper-resistant strains. Put plainly: Field test in pepper plants inoculated with Xanthomonas euvesicatoria (bacterial spot). Format: in vivo. The method, then: To test the effects of the triazole derivatives for plant biofilm inhibition activity, the compound of Formula (II)(a)(5)(D) was used as an exemplary compound (the “biofilm inhibitor/disperser” or “BFI” in the text hereinafter of Example 4).
The compound was evaluated under field conditions to determine whether it controls or enhances control of bacterial spot (caused by the bacterium Xanthomonas euvesicatoria) of pepper when applied alone or in tank-mixtures with a copper (Kocide 3000), an antibiotic (GWN-9350, gentamicin), or a putative plant defense activator (Prophyt). Tests were performed April-July 2008 at the North Carolina Agricultural Research Service Sandhills Research Station, Montgomery County.
EXPERIMENTAL DESIGN and TREATMENT APPLICATIONS: Each treatment consisted of two 7-plant rows running east-west replicated in a four-block completely randomized design. Each 7-plant row was 10.5 ft×2 ft. This area was used to calculate the quantity of spray material extrapolated for a per acre basis. Plants of bell pepper cultivar ‘X3R-Camelot’ were transplanted to the field on Apr. 24, 2008. On May 6, two plants in the south row of each plot of each treatment were inoculated with a suspension of copper-resistant strains of the bacterial pathogen. These plants were destined to serve as the inoculum source for each plot. Each of the spray test materials was mixed in 1.5 liters of water and applied using a backpack sprayer by making a single pass on each side of the plant row. Treatments were applied weekly starting immediately after the plants had been inoculated May 6 followed by 7 additional weekly sprays for a total of 8 applications through June 24.
DATA: Ratings of foliar disease were started May 22, when symptoms were observed on the inoculated plants and continued weekly through June 25. Disease was most severe on the inoculated plants and then spread to the non-inoculated plants. Data from these two groups (inoculated plants and the non-inoculated) were evaluated separately. The results are expressed as disease progress over time using the calculated Area Under the Disease Progress Curve (AUDPC). Two fruit harvests were done; July 1 and 8. Because there had been plant loss in some plots, the number of plants per plot was counted and yields (number of fruit and weight) were calculated and are reported on a per plant basis per treatment.

Another experiment has as its system C. albicans. Put plainly: Growth curve / colony count analysis, C. albicans. Format: cell-based, Candida albicans. To be noted: 100 μM (data not shown).
The mark [4] stands for this setting: two fruit harvests, per plant basis.

Experimental findings from patent publication US9351491B2, “Inhibition and dispersion of biofilms in plants with imidazole-triazole derivatives” (priority 2008, dated 2016) are described below.

Structures can show the parent of a compound that is named as a salt.

Broadly, the inhibition is the change of the read-out against control, counted positive when it falls. What is called % Inhibition is the percentage by which the read-out fell short of the control. A low value points to little suppression.

For `C/C(=C\c1ccccc1)Cn1cc(CCCCCc2c[nH]c(N)n2)nn1` [Formula (II)(a)(5)(D), 4-{5-[1-(2-Methyl-3-phenyl-allyl)-1H-[1,2,3]triazol-4-yl]-pentyl}-1H-imidazol-2-ylamine hydrochloride], in experiment [1], the inhibition at 100 µM was determined as 12%. Besides, in experiment [2], the “% Inhibition at 20 μM (vs. Xcv 135)” value came to 86%. Moreover, the “Mean AUDPC for entire plot” value in experiment [3] (foliar disease, 0-9 rating scale, AUDPC, entire plot, 8 weekly sprays) is listed as 42 a. For the same molecule, the “Mean AUDPC for inoculated plants” value in experiment [3] (foliar disease, 0-9 rating scale, Area Under the Disease Progress Curve, inoculated bell pepper plants, 8 weekly sprays, rate/acre as in treatment line) is 113 b. For the same molecule, in experiment [3] (setting [4]), the “Mean fruit yield (lb)/plant” value is 1.46 b lb and the “Mean number pepper fruit/plant” value came to 4.8 b. In addition, the “growth curves: anti-biofilm activity fungicidal or not” value in the experiment on C. albicans was “non-fungicidal”.
As for `Nc1nc(CCc2cn(CCc3c[nH]c4ccccc34)nn2)c[nH]1` [Formula (II)(i)(a)(2)(J)], in experiment [2], the “% Inhibition at 20 μM (vs. Xcv 135)” value came out at 0%.
The same measure, in the same setting: for `C/C(=C\c1ccccc1)Cn1cc(CCCCCCc2c[nH]c(N)n2)nn1` [Formula (II)(a)(6)(D), 4-{6-[1-(2-Methyl-3-phenyl-allyl)-1H-[1,2,3]triazol-4-yl]-hexyl}-1H-imidazol-2-ylamine hydrochloride] the value was 85%.
